Results on one compound are retold here after patent US11465963B2, “Tetrahydronaphthalene derivatives useful as Nrf2 activators” (BIOGEN MA INC., priority 2017, dated 2022).

Holding throughout (assay type): cell-based
Assay [1] concerns Nrf2 target genes, including GCLC, HMOX1, OSGIN1 and NQO1. The assay can be described thus: Gene expression (RT-PCR) in cultured human astrocytes. Particulars: human astrocytes treated with increasing concentrations for 20 hours. On the procedure:
(§1) Human astrocytes from ScienCell (cat #1820) were grown in astrocyte medium per supplier's instructions. Cells cultured for no more than two passages were plated in 96-well plates at 40,000 cells per well for gene transcription experiments and 20,000 cells per well for glutathione and cytoprotection assays.
Primary cultures of human spinal cord astrocytes were treated with compound for 20 hours. The cells were then rinsed in PBS, lysed, and processed for RNA using Ambion Taqman™ Cells-to-CT kit. The resulting cDNA was stored at −20° C. until analysis by real-time polymerase chain reaction (RT-PCR). The cDNA mixture from Cells-to-CT was diluted 5× before loading into PCR. This yields results similar to using 6 ng of purified cDNA. RT-PCR was performed on Life Technologies QuantStudio platform using OpenArray technique according to manufacturer's protocol using the following Taqman primers: […]
The comparative CT method was used to calculate fold changes using ThermoFisher Cloud software for PCR analysis. Samples were compared to vehicle control.

Assay [2] relates to human astrocytes. The assay can be described thus: Glutathione assay in cultured human astrocytes. Particulars: 20-hr exposure, FIG. 2. On the procedure:
as §1
Intracellular glutathione was measured after a 20-hr exposure to test compounds by a two-step process. First, cells were lysed and luciferin quantitatively generated from substrate, catalyzed by glutathione-S-transferase in the presence of analyte glutathione. Then luciferin was assayed using stabilized luciferase to produce a luminescent signal proportional to the concentration of glutathione (Promega GSH-Glo, cat #V6912).

Assay [3] has as its system human astrocytes. The assay can be described thus: Cytoprotection of human astrocytes from sodium arsenite. Particulars: compound 20 hrs before 25 μM sodium arsenite, then 22 hrs, FIG. 3. On the procedure:
Human astrocytes from ScienCell (cat #1820) were grown in astrocyte medium per supplier's instructions. Cells cultured for no more than two passages were plated in 96-well plates at 40,000 cells per well for gene transcription experiments and 20,000 cells per well for glutathione and cytoprotection assays. Astrocytes were treated for 20 hrs as above, then the medium was removed and replaced with serum- and supplement-free growth medium with and without 25 μM sodium arsenite. After 22 hrs., cells were washed with PBS, fixed with 4% paraformaldehyde/4% sucrose in PBS, stained with 4′,6-Diamidino-2-phenylindole dihydrochloride (DAPI) and counted by quantitative fluorescence microscopy.

For `CC1(C)C(=O)C(C#N)=C[C@]2(C)C[C@](O)(c3ccccc3)CC[C@H]12` [Compound 24, (4aS,7S,8aS)-7-hydroxy-4,4,8a-trimethyl-3-oxo-7-phenyl-4a,5,6,8-tetrahydronaphthalene-2-carbonitrile], in assay [1] (FIG. 1A), the “transcription of GCLC” value was “induces transcription”. The “transcription of HMOX1” value in assay [1] (FIG. 1B) is “induces transcription”. The “transcription of OSGIN1” value in assay [1] (FIG. 1C) was “induces transcription”. Besides, the “transcription of NQO1” value in assay [1] (FIG. 1D) is “induces transcription”. For the same compound, the intracellular glutathione result with human astrocytes [2] is given as “increases”. In addition, in the assay on human astrocytes [3], the “protection from oxidative stress-induced cell death” value was “protects”.
